Values joined by “and” are separate entries in the source; they are usually repeats but may differ in a detail not shown here. Equal entries are not always repeated. “Also recorded” adds a separate entry of the source.
Tests used:
[1] = test system: BjaRWT (B0034|ATG) receiver cells (pSB1A3–bjaR–gfp); test: BjaR receiver cell AHSL dose-response (gfp reporter, plate reader); type: cell-based, E. coli XL10-Gold
Text: (§1) Next, we set out to establish a unidirectional communication pathway by reconstituting the BjaI and BjaR QS machinery, separately, within synthetic cells and E. coli, respectively. As a starting point, IV-HSL-responsive receiver cells were created by transforming E. coli XL10-Gold cells with a reporter plasmid, pSB1A3–bjaR–gfp[28]. This plasmid contained a bjaR gene under the control of a constitutively active J23100 promoter and a gfp gene under the control of a pBjaR promoter. The pBjaR promoter was formed by substituting the lux-box of the pLux promoter with the BjaR-binding site (Supplementary Fig. 10). […] Although this reporter plasmid had been characterized previously, gfp expression was initiated with C4-HSL rather than the cognate ligand, IV-HSL. Thus, we first evaluated the dose–response relationship between synthetic IV-HSL (synthesis described in Methods) and GFP production by BjaR receiver cells. The cells were grown in M9 minimal media to an optical density at 600 nm (OD600) = 0.05, then transferred to a 96-well plate containing IV-HSL and incubated at 37 °C, 800 r.p.m., for 4 h. […] To elucidate the root cause of the high background fluorescence, a BjaRKO variant of the reporter plasmid was constructed. […] Therefore, the high OFF-state was attributed to BjaR-mediated transcription activation in the absence of IV-HSL, rather than host transcription factors recognizing the pBjaR promoter, or transcription factor independent gfp expression.
(§2) The BjaR reporter plasmids were retransformed into E. coli XL10-Gold cells for each experiment. A single colony was used to inoculate 5 ml LB + Amp media and incubated at 37 °C, 225 r.p.m. overnight. Overnight cultures were diluted 1/250 or 1/500 in 5 ml M9 minimal media + Amp and incubated at 37 °C, 225 r.p.m. for 3 h and 45 min (until OD600 = ~0.075). Cultures were diluted down to OD600 = 0.05 with M9 minimal media + Amp, and 200 µl was added to wells of a 96-well plate containing 1 µl IV-HSL dissolved in DMSO or 1 µl BjaI CFPS reactions (IV-HSL concentrations obtained from serial dilution from 63.2 µM to 632 pM; final DMSO concentration = 0.5%). Cells were incubated at 37 °C, 800 r.p.m., in a thermomixer with a heated lid for 4 h. Fluorescence and OD600 were measured in a Tecan M1000 infinite plate reader (excitation, 488 nm; emission, 510 nm; bandwidth, 5 nm; gain, 101 and z position, 21,311 µm). The dose–response curves were fitted to the function indicated by Eq. (1), where a = maximal fluorescence output, b = basal fluorescence output, X = concentration of AHSL, GFP = fluorescence at the given condition, EC50 = AHSL at 50% maximal fluorescence output and h = hill coefficient. EC50 and h were derived using the nonlinear regression model based on Eq. (1), in MATLAB. A summary of the dose–response data is available in Supplementary Table 1.1 GFP=b+a−b/1+10^logEC50−X×h

[2] = test system: BjaRKO receiver cells (pSB1A3–bjaRKO–gfp); test: as above; type: cell-based, E. coli XL10-Gold
Text: as §1, §2

CC(C)CC(=O)N[C@H]1CCOC1=O [IV-HSL, N-isovaleryl-L-homoserine lactone]
IV-HSL concentration at which gfp expression saturated ([1]; 4 h, 37 °C): ~ 100 nM
lowest IV-HSL concentration giving increased gfp expression ([1]; 4 h, 37 °C): 100 pM
EC50 ([1]; Escherichia coli, IV-HSL-activated gfp expression, M9 minimal media, 37 °C, 4 h): 1 ± 0.11 nM
GFP ([1]; Log([ASHL]) -6.5): 5520 and 5263 and 4853
Mean normalised fluorescence ([1]; Log([ASHL]) -6.5): 51540.5
Normalised fluorescence ([1]; Log([ASHL]) -6.5): 52896 and 49381.5 and 52343.9
GFP ([1]; Log([ASHL]) -7): 4847 and 5318 and 4599
Mean normalised fluorescence ([1]; Log([ASHL]) -7): 48761.2
Normalised fluorescence ([1]; Log([ASHL]) -7): 46176.2 and 48745.4 and 51362.1
GFP ([1]; Log([ASHL]) -7.5): 4806 and 4967 and 4256
Mean normalised fluorescence ([1]; Log([ASHL]) -7.5): 50366.9
Normalised fluorescence ([1]; Log([ASHL]) -7.5): 49622.2 and 48407.5 and 53071.1
GFP ([1]; Log([ASHL]) -8): 4739 and 4412 and 4755
Mean normalised fluorescence ([1]; Log([ASHL]) -8): 51222.6
Normalised fluorescence ([1]; Log([ASHL]) -8): 48553.6 and 53423.6 and 51690.6
GFP ([1]; Log([ASHL]) -8.5): 4235 and 3971 and 4223
Mean normalised fluorescence ([1]; Log([ASHL]) -8.5): 46308.3
Normalised fluorescence ([1]; Log([ASHL]) -8.5): 43174.3 and 50090 and 45660.8
GFP ([1]; Log([ASHL]) -9): 3046 and 2749 and 2957
Mean normalised fluorescence ([1]; Log([ASHL]) -9): 32989.1
Normalised fluorescence ([1]; Log([ASHL]) -9): 31098.3 and 35762 and 32107
GFP ([1]; Log([ASHL]) -9.5): 2089 and 1773 and 1816
Mean normalised fluorescence ([1]; Log([ASHL]) -9.5): 20544.4
Normalised fluorescence ([1]; Log([ASHL]) -9.5): 19459.5 and 23021.7 and 19152
GFP ([1]; Log([ASHL]) -10): 1495 and 1301 and 1477
Mean normalised fluorescence ([1]; Log([ASHL]) -10): 15546.1
Normalised fluorescence ([1]; Log([ASHL]) -10): 14827.9 and 16425.7 and 15384.6
GFP ([1]; Log([ASHL]) -10.5): 1424 and 1254 and 1414
Mean normalised fluorescence ([1]; Log([ASHL]) -10.5): 15128.3
Normalised fluorescence ([1]; Log([ASHL]) -10.5): 14176.3 and 15945.9 and 15262.6
GFP ([1]; Log([ASHL]) -11): 1414 and 1258 and 1391
Mean normalised fluorescence ([1]; Log([ASHL]) -11): 15383.1
Normalised fluorescence ([1]; Log([ASHL]) -11): 14419.4 and 15744.7 and 15985.4
GFP ([1]; Log([ASHL]) -11.5): 1447 and 1104 and 1274
Mean normalised fluorescence ([1]; Log([ASHL]) -11.5): 15262.1
Normalised fluorescence ([1]; Log([ASHL]) -11.5): 15049.3 and 14629.6 and 16107.4
gfp expression in presence of IV-HSL ([2]; BjaR knocked out): completely ablated gfp expression; also recorded: minimal gfp expression
GFP ([2]; Log([ASHL]) -6.5): 184 and 176 and 173
Mean normalised fluorescence ([2]; Log([ASHL]) -6.5): 361.621
Normalised fluorescence ([2]; Log([ASHL]) -6.5): 365.437 and 317.314 and 402.112
GFP ([2]; Log([ASHL]) -7): 173 and 168 and 165
Mean normalised fluorescence ([2]; Log([ASHL]) -7): 321.731
Normalised fluorescence ([2]; Log([ASHL]) -7): 319.68 and 293.754 and 351.759
GFP ([2]; Log([ASHL]) -7.5): 177 and 169 and 166
Mean normalised fluorescence ([2]; Log([ASHL]) -7.5): 323.42
Normalised fluorescence ([2]; Log([ASHL]) -7.5): 331.126 and 287.856 and 351.279
GFP ([2]; Log([ASHL]) -8): 168 and 166 and 175
Mean normalised fluorescence ([2]; Log([ASHL]) -8): 329.861
Normalised fluorescence ([2]; Log([ASHL]) -8): 292.758 and 367.412 and 329.412
GFP ([2]; Log([ASHL]) -8.5): 168 and 165 and 177
Mean normalised fluorescence ([2]; Log([ASHL]) -8.5): 326.491
Normalised fluorescence ([2]; Log([ASHL]) -8.5): 291.054 and 362.261 and 326.158
GFP ([2]; Log([ASHL]) -9): 165 and 164 and 177
Mean normalised fluorescence ([2]; Log([ASHL]) -9): 335.395
Normalised fluorescence ([2]; Log([ASHL]) -9): 295.725 and 362.027 and 348.432
GFP ([2]; Log([ASHL]) -9.5): 164 and 162 and 172
Mean normalised fluorescence ([2]; Log([ASHL]) -9.5): 325.095
Normalised fluorescence ([2]; Log([ASHL]) -9.5): 293.548 and 346.048 and 335.689
GFP ([2]; Log([ASHL]) -10): 163 and 162 and 171
Mean normalised fluorescence ([2]; Log([ASHL]) -10): 332.521
Normalised fluorescence ([2]; Log([ASHL]) -10): 290.698 and 371.151 and 335.714
GFP ([2]; Log([ASHL]) -10.5): 166 and 164 and 173
Mean normalised fluorescence ([2]; Log([ASHL]) -10.5): 338.795
Normalised fluorescence ([2]; Log([ASHL]) -10.5): 301.85 and 369.458 and 345.075
GFP ([2]; Log([ASHL]) -11): 163 and 161 and 171
Mean normalised fluorescence ([2]; Log([ASHL]) -11): 330.063
Normalised fluorescence ([2]; Log([ASHL]) -11): 296.053 and 361.746 and 332.39
GFP ([2]; Log([ASHL]) -11.5): 165 and 174 and 162
Mean normalised fluorescence ([2]; Log([ASHL]) -11.5): 344.578
Normalised fluorescence ([2]; Log([ASHL]) -11.5): 307.076 and 352.984 and 373.673

Source: article PMC10449621, “Engineering cellular communication between light-activated synthetic cells and bacteria” (Nature Chemical Biology, 2023)
